Test results as given in the NIST ThermoML archive (doi:10.1016/j.jct.2010.06.012).
Several values for one entry are separate records, joined by “and”; a condition that tells them apart may be missing. Equal values may be shown once.

Conditions: Crystal, Calculated from knudsen effusion weight loss

Clc1ccc(-n2cccc2)cc1 [1-(4-chlorophenyl)-1H-pyrrole]
Conditions	vapor or sublimation pressure
295.22 K	0.000183 kPa and 0.000176 kPa and 0.000175 kPa
297.17 K	0.000227 kPa and 0.00022 kPa and 0.000219 kPa
299.22 K	0.000289 kPa and 0.000279 kPa and 0.000275 kPa
301.12 K	0.000363 kPa and 0.000364 kPa and 0.000378 kPa
303.17 K	0.000467 kPa and 0.000463 kPa and 0.000451 kPa
305.21 K	0.000595 kPa and 0.000571 kPa and 0.000558 kPa
307.1 K	0.000744 kPa and 0.000715 kPa and 0.000706 kPa
309.12 K	0.000904 kPa and 0.000892 kPa and 0.000871 kPa
311.22 K	0.001132 kPa and 0.001115 kPa and 0.001084 kPa

Fc1ccc(-n2cccc2)cc1 [1-(4-fluorophenyl)pyrrole]
Conditions	vapor or sublimation pressure
271.14 K	0.000157 kPa and 0.000149 kPa and 0.000152 kPa
273.16 K	0.0002 kPa and 0.000197 kPa
275.2 K	0.000237 kPa and 0.000236 kPa
277.18 K	0.000303 kPa and 0.000288 kPa and 0.000313 kPa
279.18 K	0.000396 kPa and 0.000393 kPa and 0.000391 kPa
281.18 K	0.000509 kPa and 0.000505 kPa and 0.000497 kPa
283.12 K	0.000688 kPa and 0.000694 kPa and 0.00068 kPa
285.13 K	0.000863 kPa and 0.000854 kPa and 0.000832 kPa
287.17 K	0.001072 kPa and 0.001068 kPa and 0.001064 kPa

Ic1ccc(-n2cccc2)cc1 [1-(4-iodophenyl)pyrrole]
Conditions	vapor or sublimation pressure
319.11 K	0.000107 kPa and 0.000112 kPa and 0.000109 kPa
321.19 K	0.000142 kPa and 0.00014 kPa and 0.000137 kPa
323.18 K	0.000174 kPa and 0.000169 kPa
325.12 K	0.000218 kPa and 0.000216 kPa and 0.00021 kPa
327.19 K	0.000274 kPa and 0.00027 kPa and 0.000265 kPa
329.18 K	0.000336 kPa and 0.000331 kPa and 0.000329 kPa
331.11 K	0.000402 kPa and 0.000421 kPa and 0.000416 kPa
333.17 K	0.00052 kPa and 0.000522 kPa and 0.000508 kPa
335.17 K	0.000639 kPa and 0.000628 kPa and 0.000624 kPa
337.12 K	0.000778 kPa and 0.000814 kPa and 0.000806 kPa
339.19 K	0.001022 kPa and 0.001014 kPa and 0.000977 kPa
341.17 K	0.001237 kPa and 0.001212 kPa and 0.001211 kPa
